In PMC7954579 (Cancer chemotherapy and pharmacology, 2020):
“And” between values parts separate entries of the source, which are not always exact repeats. Equal entries are not always repeated.

Tests used:
[1] = Plasma pharmacokinetics in patients; type: in vivo, human; conditions: for half-life: t1/2,z
[2] = tested on: colorectal cancer cell line; experiment: In vitro combination study in a colorectal cancer cell line; type: cell-based; conditions: Supplementary Fig. 1A
CDKs 1,2,4,5, and 9 = conditions: read-out: IC50 range; cited from earlier work
[3] = twice-weekly schedule, monotherapy; cited from earlier work
[4] = IV, days 1, 4, 8, 11 of 21-day cycle, with onalespib 80 mg/m^2 (DL2)
[5] = All dose levels, C1D1, AT7519 after onalespib, n = 23, geometric mean
[6] = All dose levels, C1D11, AT7519 after onalespib, n = 15, geometric mean
[7] = DL1, C1D1, AT7519 21 mg/m^2 IV after onalespib 40 mg/m^2, n = 4, geometric mean
[8] = DL1, C1D11, AT7519 21 mg/m^2 IV after onalespib 40 mg/m^2, n = 2, geometric mean
[9] = DL2, C1D1, AT7519 21 mg/m^2 IV after onalespib 80 mg/m^2, n = 15, geometric mean
[10] = DL2, C1D11, AT7519 21 mg/m^2 IV after onalespib 80 mg/m^2, n = 11, geometric mean
[11] = DL3, C1D1, AT7519 27 mg/m^2 IV after onalespib 80 mg/m^2, n = 4, geometric mean
[12] = DL3, C1D11, AT7519 27 mg/m^2 IV after onalespib 80 mg/m^2, n = 2, geometric mean
[13] = human, plasma, iv, DL1, C1D1, AT7519 21 mg/m^2 IV after onalespib 40 mg/m^2, n = 4, geometric mean
[14] = human, plasma, iv, DL1, C1D11, AT7519 21 mg/m^2 IV after onalespib 40 mg/m^2, n = 2, geometric mean
[15] = human, plasma, iv, DL2, C1D1, AT7519 21 mg/m^2 IV after onalespib 80 mg/m^2, n = 15, geometric mean
[16] = human, plasma, iv, DL2, C1D11, AT7519 21 mg/m^2 IV after onalespib 80 mg/m^2, n = 11, geometric mean
[17] = human, plasma, iv, DL3, C1D1, AT7519 27 mg/m^2 IV after onalespib 80 mg/m^2, n = 4, geometric mean
[18] = human, plasma, iv, DL3, C1D11, AT7519 27 mg/m^2 IV after onalespib 80 mg/m^2, n = 2, geometric mean

O=C(NC1CCNCC1)c1n[nH]cc1NC(=O)c1c(Cl)cccc1Cl [AT7519, N-(4-piperidinyl)-4-(2,6-dichlorobenzoylamino)-1H-pyrazole-3-car-boxamide]
CL [1, 5]: 9.97 L/h/m^2 | Vz [1, 5]: 144.3 L/m^2 | CL [1, 6]: 8.93 L/h/m^2 | Vz [1, 6]: 135.9 L/m^2 | CL [1, 7]: 13.6 L/h/m^2 | Vz [1, 7]: 146.6 L/m^2 | CL [1, 8]: 9.98 L/h/m^2 | Vz [1, 8]: 155.9 L/m^2 | CL [1, 9]: 9.1 L/h/m^2 and 9.13 L/h/m^2 | Cmax [1, 9]: 459.3 ng/mL | Vz [1, 9]: 146.3 L/m^2 | CL [1, 10]: 8.6 L/h/m^2 and 8.58 L/h/m^2 | Cmax [1, 10]: 508.7 ng/mL | Vz [1, 10]: 132.6 L/m^2 | CL [1, 11]: 10.1 L/h/m^2 | Vz [1, 11]: 134.7 L/m^2 | CL [1, 12]: 10.0 L/h/m^2 | Vz [1, 12]: 135.5 L/m^2 | AUC [1, 13]: 1540 ng·h/mL | AUC [1, 14]: 2100 ng·h/mL | AUC [1, 15]: 2300 ng·h/mL | AUC [1, 16]: 2450 ng·h/mL | AUC [1, 17]: 2660 ng·h/mL | AUC [1, 18]: 2700 ng·h/mL | Cmax ([1]; human, plasma, iv, Cmax, DL1, C1D1, AT7519 21 mg/m^2 IV after onalespib 40 mg/m^2, n = 4, geometric mean): 463 ng/mL | Cmax ([1]; human, plasma, iv, Cmax, DL1, C1D11, AT7519 21 mg/m^2 IV after onalespib 40 mg/m^2, n = 2, geometric mean): 486 ng/mL | Cmax ([1]; human, plasma, iv, Cmax, DL2, C1D1, AT7519 21 mg/m^2 IV after onalespib 80 mg/m^2, n = 15, geometric mean): 459 ng/mL | Cmax ([1]; human, plasma, iv, Cmax, DL2, C1D11, AT7519 21 mg/m^2 IV after onalespib 80 mg/m^2, n = 11, geometric mean): 509 ng/mL | Cmax ([1]; human, plasma, iv, Cmax, DL3, C1D1, AT7519 27 mg/m^2 IV after onalespib 80 mg/m^2, n = 4, geometric mean): 602 ng/mL | Cmax ([1]; human, plasma, iv, Cmax, DL3, C1D11, AT7519 27 mg/m^2 IV after onalespib 80 mg/m^2, n = 2, geometric mean): 581 ng/mL | half-life [1, 13]: 7.48 h | half-life [1, 14]: 10.8 h | half-life [1, 15]: 11.1 h | half-life [1, 16]: 10.7 h | half-life [1, 17]: 9.21 h | half-life [1, 18]: 9.38 h | Effect on onalespib-induced HSP70 upregulation [2]: dose-dependent inhibition of onalespib-induced HSP70 upregulation | IC50 (CDKs 1,2,4,5, and 9): 11 to 220 nM | RP2D as individual agent [3]: 27 mg/m^2 | Maximally tolerated dose (MTD) of AT7519 in the combination [4]: 21 mg/m^2
